Data: patent EP2156835A1, “New therapeutic use of drotaverine” (Sanofi-Aventis, priority 2008, dated 2010)

Tested on: human isolated detrusor muscle
Assay: Relaxation of U46619-induced plateau of contraction in human isolated detrusor muscle strips (organ bath)
Conditions: for Emax at 100 µM / EC50: Homo sapiens; for Emax at 100 µM: at the concentration of 100 µM, percent relaxation of 1 µM U46619 plateau, 10 µM forskolin taken as 100% relaxation, read-out: maximal relaxant effect (Emax); for EC50: mean, relaxation of plateau of contraction induced by 1 µM U46619 after priming with 0.1 µM forskolin, CRC 0.03 - 100 µM, non linear regression fit, read-out: pEC50 (-log EC50) (converted)
Experimental: The detrusor muscle was separated from mucosa and adventitia and cut into small strips which were mounted, under 1 g initial tension, in 5 mL glass organ baths containing oxygenated Krebs-Henseleit solution (composition in mM: NaCl 114, KCl 4.7, CaCl2 2.5, MgS04 1.2, KH2PO4 1.2, NaHCO3 25, glucose 11.7) kept at 37°C. Tissues were allowed to equilibrate for at least 60 minutes during which time the Krebs solution was replaced every 15 min. After the stabilization period, a reference contraction to 80 mM KCl was performed on each strip. Tissues having a contraction less than 1 g were discarded. After wash-outs and a further 45 min of re-equilibration, during which the resting tension was adjusted periodically, each strip was primed with 0.1 µM forskolin, an adenylyl cyclise activator, for 10 min then recontracted with 1 µM U46619 for at least 20 min, until a stable plateau of contraction was obtained. Strips having a plateau of contraction less than 0.2 g were discarded. After obtaining a stable plateau of contraction, concentration-responses curves (CRC) to drotaverine and rolipram (0.03 - 100 µM) or the common vehicle (DMSO from 0.003 to 1 % in the organ bath) were performed. At the end of the CRC, the maximal relaxant effect for each strip was determined following application of 10 µM forskolin into the organ baths. Only one CRC to each substance or solvent was tested in a single strip. CRCs were constructed using 8 bladder strips from 4 different patients. Results were expressed as percent relaxation of the plateau of contraction induced by 1 µM U46619, with respect to the maximal effect obtained with 10 µM forskolin taken as 100% relaxation.
All CRCs were fitted by non linear regressions using the software GraphPad Prism® version 4.0 to obtain the following parameters: Emax: Maximal relaxation induced by the tested substance; EC50: the concentration which induces 50% of the maximum effect, expressed as pEC50 (-log EC50). Comparisons of the CRCs were performed with two-way analysis of variance (ANOVA) statistical analysis test and Bonferroni post-test. All differences will be considered statistically significant when the null hypothesis can be rejected at a risk α of less than 0.05.

EC50	Structure (SMILES)	Emax at 100 µM	relaxation of U46619-contracted detrusor strips (from 0.03 to 10 µM)	relaxation of U46619-induced detrusor muscle contraction (from 30 to 100 µM)	relaxation of U46619-induced human detrusor contraction (from 0.03 to 100 µM)
32.4 µM	CCOc1ccc(C=C2NCCc3cc(OCC)c(OCC)cc32)cc1OCC [drotaverine, 1-[(3,4-diethoxyphenyl)methylene]-6,7-diethoxy-1,2,3,4-tetrahydro-isoquinoline]	80.8 ± 3.07%	slight relaxation	significant concentration-dependent relaxation	–
0.151 µM	COc1ccc(C2CNC(=O)C2)cc1OC1CCCC1 (stereo not shown) [rolipram]	89.5 ± 2.68%	–	–	significant concentration-dependent relaxation
